From USRE47689E1, “Compounds for treating spinal muscular atrophy” (PTC Therapeutics, Inc., priority 2011, dated 2019)

Legend:
Assay type in all cases: in vivo, mouse
[1] = test system: full length and Δ7 SMN2 mRNAs; experiment: Endogenous SMN2 mRNA end-point semi-quantitative RT-PCR splicing assay in animal tissues; settings: C/C-allele SMA mice, brain and muscle, oral gavage twice per day for 10 days, agarose gel
Experimental: The endpoint reverse transcription-PCR (RT-PCR) splicing assay is used to quantify the levels of the full length and Δ7 SMN2 mRNAs in tissues from mice treated with test compound.
Protocol. C/C-allele SMA mice are treated by oral gavage two times per day for 10 days with test compounds in 0.5% HPMC and 0.1% Tween-80. Tissue samples are collected and snap frozen for RNA purification.
Tissue samples (20-40 mg) are homogenized in QIAzol Lysis Reagent for 2 minutes at 20 Hz in the TissueLyser II using one stainless steel bead. After addition of chloroform, the homogenate is separated into aqueous and organic phases by centrifugation. RNA partitioned to the upper, aqueous phase is extracted and ethanol is added to provide appropriate binding conditions. The sample is then applied to the RNeasy spin column from the RNeasy Mini Kit, where total RNA binds to the membrane. The RNA is eluted in RNase-free water then stored at −20° C.
SMN2 spliced products are identified using the following amplification primers in Table 8. These primers hybridize to a nucleotide sequence in exon 6 (SMN Forward D, SEQ ID NO. 13) (nucleotide 22 to nucleotide 46) and exon 8 (SMN Reverse C, SEQ ID NO. 12) common to human SMN1 and SMN2 mRNAs.
To synthesize cDNA, combine 1 μL of RNA solution (25-50 ng), 4 μL of 5× iScript reaction mix, 1 μL of reverse transcriptase, and 10 μL of water are combined and incubates 25° C. for 5 min followed by 42° C. for 30 min followed by 85° C. for 5 min. cDNA solution is stored at −20° C.
To perform endpoint PCR, 5 μL of cDNA, 0.2 μL of 100 μM forward primer, 0.2 μL of 100 μM reverse primer, and 22.5 μL of polymerase super mix are combined in a 96 well semiskirted PCR plate. PCR is carried out at the following temperatures for indicated time: Step 1: 94° C. (2 min), Step 2: 94° C. (30 sec), Step 3: 55° C. (30 sec), Step 4: 68° C. (1 min), then repeat Steps 2 to 4 for a total of 33 cycles, then hold at 4° C.
10 μL of each PCR sample is electrophoretically separated on a 2% agarose E-gel for 14 minutes, stained with ds DNA staining reagents (e.g., ethidium bromide) and visualized using a gel imager.

Smn protein = Smn protein in tissues of neonatal Δ7 SMA mice; settings: neonatal SMA Δ7 homozygous knockout mice; brain, spinal cord, muscle; IP QD from PND 3 to day 9
Experimental: Protocol. The tissue samples in Safe-Lock tubes are weighed and the volume of RIPA buffer containing the protease inhibitor cocktail is added based on the weight to volume ratios for each type of tissue: Brain (50 mg/mL), Muscle (50 mg/mL) and Spinal Cord (25 mg/mL).
Tissues are homogenized using the TissueLyzer by bead milling. 5 mm stainless steel beads are added to the sample and shaken vigorously for 5 minutes at 30 Hz in the TissueLyzer. The samples are then centrifuged for 20 minutes at 14,000×g in a microcentrifuge and the homogenates transferred to the PCR plate. The homogenates are diluted in RIPA buffer to approximately 1 mg/mL for HTRF and approximately 0.5 mg/mL for total protein measurement using the BCA protein assay. […] Fluorescence for each well of the plate at 665 nm and 620 nm is measured on an EnVision multilabel plate reader (Perkin-Elmer). The total protein in the tissue homogenate is measured using the BCA assay according to the manufacturer's protocol.
The normalized fluorescence signal is calculated for each sample, Blank and vehicle control well by dividing the signal at 665 nm by the signal at 620 nm. Normalizing the signal accounts for possible fluorescence quenching due to the matrix effect of the tissue homogenate. […] The ΔF value for each tissue sample well is divided by the total protein quantity (determined using the BCA assay) for that tissue sample. […]

[2] = test system: SMA Δ7 homozygous knockout mice; experiment: Survival of neonatal Δ7 SMA mice; settings: IP QD from PND 3, then orally BID until study end, compared to vehicle
Experimental: The change in the number of surviving mice over time is used to determine whether treatment with a test compound improves survival.
Protocol. SMA Δ7 homozygous knockout mice are dosed intraperitoneally (IP) with test compound or vehicle (100% DMSO) once per day (QD) from postnatal day (PND) 3 until the dose regimen is switched to an oral dose twice per day (BID) in 0.5% hydroxypropylmethyl cellulose (HPMC) with 0.1% Tween-80 at a dose 3.16-fold higher than the dose used for IP. The number of surviving mice in each group is recorded every day and plotted as a percent of total number of mice. Tissues of SMA Δ7 and age-matched heterozygous mice are collected for the measurement of Smn protein levels and processed as detailed in Example 10. The total protein normalized Smn protein levels measured in the tissues are plotted as a percent of those in the age-matched heterozygous mice tissues, with the heterozygous levels represented as 100 percent. The level of Smn protein in the test compound treated mice tissue relative to that in heterozygous mice tissue is indicated as a percent value above each bar in the graph.

SMILES | SMN2 FL mRNA [1] | SMN2 Δ7 mRNA [1] | total protein normalized Smn level (Smn protein) | survival [2]
CC(C)NCCc1ccc2cc(-c3nc4c(Cl)cccc4s3)c(=O)oc2c1 [Cpd 35, 3-(4-chloro-1,3-benzothiazol-2-yl)-7-[2-(propan-2-ylamino)ethyl]-2H-chromen-2-one] | progressively more SMN2 FL mRNA | less SMN2 Δ7 mRNA | dose dependently increased | improved compared to vehicle treated mice
CCN1CCN(c2ccc3cc(-c4cn5cc(C)nc(C)c5n4)c(=O)oc3c2)C[C@@H]1C [Cpd 626, 3-(6,8-dimethylimidazo[1,2-a]pyrazin-2-yl)-7-[(3S)-4-ethyl-3-methylpiperazin-1-yl]-2H-chromen-2-one] | progressively more SMN2 FL mRNA | less SMN2 Δ7 mRNA | dose dependently increased | improved compared to vehicle treated mice
